Measurements taken from publication PMC4533973, “Synthesis and Evaluation of Chloramphenicol Homodimers: Molecular Target, Antimicrobial Activity, and Toxicity against Human Cells” (PLoS ONE, 2015).
Where two headings read alike, the source gives them in different places.

Legend:
MRSA (GRE2691) = test: Antibacterial activity (growth inhibition, EC50); assay type: cell-based; conditions: Staphylococcus aureus
Description: (§1) A.S. Mankin (University of Illinois). E. coli ΔtolC strain BL21 DE3 with impaired AcrAB-TolC, a proton-dependent MDR efflux pump causing multidrug resistance, was offered by Dr D.N. Wilson (University of Munich) and included in our study to test if this mechanism of resistance affects the efficacy of CAM dimers. […] I. Spiliopoulou (National Reference Laboratory for Staphylococci, School of Medicine, University of Patras, Greece). Finally, E. coli strain Rosetta(DE3)pLysS, containing a chloramphenicol resistant gene in the pLysS plasmid, was purchased from Novagen and was also included in our study. Briefly, S. aureus or E. coli cells (200 μl of a 0.700 OD560 preculture) containing wild-type or mutant ribosomes were added in 3.8 ml of LB (Luria-Bertani) medium and grown at 37°C in the presence or absence of CAM or CAM dimers until the optical density of the control culture (grown in the absence of drug) reached the value 0.700 at 560 nm. For E. faecium and P. aeruginosa cultures, TSB (Tryptic Soy Broth) medium was used, instead of LB medium, in order to achieve exponential doubling times between 25 and 35 minutes. From dose-response curves, the half-maximal effective concentration (EC50) for each compound and strain was estimated. EC50 represents the molar concentration of a compound that produces 50% of the maximal possible effect. The EC50 values were mathematically determined by non linear regression fitting of the observed culture optical-density values, expressed as the percentage of 0.700 (y), into Hill Equation, y=min+max−min/1+(x/EC50)^−n where min and max are the lowest and highest observed values of the culture optical density, respectively, x the concentration of the tested compound, and n the Hill coefficient that represents the largest absolute value of the curve slope. EC50 is equal to the x- value of the sigmoid’s midpoint. Fitting was performed using the Four Parameter Logistic Curve of the SigmaPlot Program Version 11.0 (Systat Software, Inc) for Exact Graphs and Data Analysis.

MRSA (GRE2272) = test: Antibacterial activity (growth inhibition, EC50); assay type: cell-based; conditions: Staphylococcus aureus
Description: as §1

E. faecium (GRE5152) = test: Antibacterial activity (growth inhibition, EC50); assay type: cell-based; conditions: Enterococcus faecium
Description: as §1

S. aureus (WT) = test: Antibacterial activity (growth inhibition, EC50); assay type: cell-based; conditions: Staphylococcus aureus
Description: as §1

E. coli (ΔtolC) = test: Antibacterial activity (growth inhibition, EC50); assay type: cell-based, Escherichia coli; conditions: Escherichia coli, BL21-DE3
Description: as §1

E. coli (A2058G) = test: Antibacterial activity (growth inhibition, EC50); assay type: cell-based, Escherichia coli; conditions: for EC50: Escherichia coli
Description: as §1

E. coli (A2503C) = test: Antibacterial activity (growth inhibition, EC50); assay type: cell-based, Escherichia coli; conditions: for EC50: Escherichia coli
Description: as §1

E. coli (WT) = test: Antibacterial activity (growth inhibition, EC50); assay type: cell-based, Escherichia coli; conditions: for EC50: Escherichia coli, LB medium, 37°C, OD560; for EC50(cell growth)/IC50(puro): wild-type E. coli, IC50(puro) calculated from Ki* at 2 mM puromycin
Description: as §1

[1] = system: E. coli Rosetta(DE3)pLysS; test: Antibacterial activity (growth inhibition, EC50); assay type: cell-based, Escherichia coli; conditions: for EC50: Escherichia coli
Description: as §1

CAM acetyltransferase = target: T1, CAM acetyltransferase (Escherichia coli, UniProt P62577); test: CAM acetyltransferase assay (compounds as acetyl-acceptor substrates); assay type: biochemical, E. coli
T1 construct: purchased Sigma-Aldrich; host or cells: E. coli
Procedure: Fig 6 Kinetic analysis of the CAM acetyltransferase reaction using CAM or compounds 4 and 5 as substrates. […] The product of the enzymatic reaction, coenzyme A, reacted with 5,5’-dithio-bis(2-nitrobenzoic acid) to yield 5-thio-2-nitrobenzoate which absorbs at 412 nm, with a micromolar extinction coefficient equal to 0.0136. The Vmax and Km values were determined by fitting the substrate concentrations [S] and the obtained ΔA412nm/min (Vo) values into equation V 0 = V max[S]/(K m + [S]). The obtained Vmax values were divided by 0.0136 to convert their units in μM·min^-1 (http://www.sigmaaldrich.com/technical-documents/protocols/biology/enzymatic-assay-of-chloramphenicol-acetyltransferase.html). The ratio Vmax/Km for each curve is given in parenthesis. TEXT PRINTED IN THE PICTURE: no label printed: (0.178 min^-1) | no label printed: (0.139 min^-1) | no label printed: (0.008 min^-1) DOUBTS OF THE COPYIST ABOUT THIS PICTURE: The picture prints no substance label and no measure name for the three values. They stand beside the curves marked with triangles (0.178 min^-1), circles (0.139 min^-1) and squares (0.008 min^-1). […]

[2] = LB medium, 37°C, OD560, read-out: EC50

T1 sequence (P62577 whole entry, looked up): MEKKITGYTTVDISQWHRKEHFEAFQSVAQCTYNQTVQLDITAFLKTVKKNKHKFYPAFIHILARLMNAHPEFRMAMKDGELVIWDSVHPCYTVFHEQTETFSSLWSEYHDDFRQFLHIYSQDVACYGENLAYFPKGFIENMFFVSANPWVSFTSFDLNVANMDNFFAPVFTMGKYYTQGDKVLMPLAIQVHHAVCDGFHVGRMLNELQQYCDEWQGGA

Compound: O=C(CCCCC(=O)N[C@H](CO)[C@H](O)c1ccc([N+](=O)[O-])cc1)N[C@H](CO)[C@H](O)c1ccc([N+](=O)[O-])cc1 [Compound 4, N^1,N^6-Bis((1R,2R)-1,3-dihydroxy-1-(4-nitrophenyl)propan-2-yl)adipamide]
- EC50 (MRSA (GRE2691)): 76.9 ± 8.6 µM
- EC50 (MRSA (GRE2272)): > 200 µM
- EC50 (E. faecium (GRE5152)): 99.8 ± 46.9 µM
- EC50 (S. aureus (WT)): 28.3 ± 1.8 µM
- EC50 (E. coli (ΔtolC)): 98 ± 16.3 µM
- EC50 (E. coli (A2058G)): 97 ± 3.3 µM
- EC50 (E. coli (A2503C)): > 100 µM
- EC50 (E. coli (WT)): 83.6 ± 6.2 µM
- EC50(cell growth)/IC50(puro) (E. coli (WT)): 7.45 ± 0.81
- EC50 [1]: > 200 µM
- behaviour as substrate of CAM acetyltransferase (CAM acetyltransferase): behaves like CAM as substrate of CAM acetyltransferase

Compound: O=C(N[C@H](CO)[C@H](O)c1ccc([N+](=O)[O-])cc1)c1ccc(C(=O)N[C@H](CO)[C@H](O)c2ccc([N+](=O)[O-])cc2)cc1 [Compound 5, N^1,N^4-Bis ((1R,2R)-1,3-dihydroxy-1-(4-nitrophenyl)propan-2-yl)-terephthalamide]
- EC50 (MRSA (GRE2691); [2]): 24 ± 3.1 µM
- EC50 (MRSA (GRE2272); [2]): 16.9 ± 4.4 µM
- EC50 (E. faecium (GRE5152); TSB medium, 37°C, OD560, read-out: EC50): 40.9 ± 3.8 µM
- EC50 (S. aureus (WT); [2]): 15.4 ± 1.9 µM
- EC50 (E. coli (ΔtolC)): 23.7 ± 1.5 µM
- activity relative to CAM in inhibiting the growth of the A2058G mutant (E. coli (A2058G)): equivalent to CAM
- EC50 (E. coli (A2058G)): 18 ± 1.5 µM
- fold more active than CAM in inhibiting the A2503C mutant (E. coli (A2503C)): approximately 2 fold
- EC50 (E. coli (A2503C)): 16.4 ± 1.5 µM
- EC50 (E. coli (WT)): 25.3 ± 1.9 µM
- EC50(cell growth)/IC50(puro) (E. coli (WT)): 14.06 ± 1.75
- activity compared to CAM in inhibiting the growth of Rosetta(DE3)pLysS E. coli cells [1]: five-fold higher activity
- EC50 [1]: 23.5 ± 1.3 µM
- behaviour as substrate of CAM acetyltransferase (CAM acetyltransferase): almost inactive
